From ChEMBL document CHEMBL1770065, “Discovery of a clinical candidate from the structurally unique dioxa-bicyclo[3.2.1]octane class of sodium-dependent glucose cotransporter 2 inhibitors” (J Med Chem, 2011) come the findings set out here.

For data set [1], the target named is T1, Solute carrier family 22 member 6 (Homo sapiens, UniProt Q4U2R8).
T1 sequence (Q4U2R8 whole entry): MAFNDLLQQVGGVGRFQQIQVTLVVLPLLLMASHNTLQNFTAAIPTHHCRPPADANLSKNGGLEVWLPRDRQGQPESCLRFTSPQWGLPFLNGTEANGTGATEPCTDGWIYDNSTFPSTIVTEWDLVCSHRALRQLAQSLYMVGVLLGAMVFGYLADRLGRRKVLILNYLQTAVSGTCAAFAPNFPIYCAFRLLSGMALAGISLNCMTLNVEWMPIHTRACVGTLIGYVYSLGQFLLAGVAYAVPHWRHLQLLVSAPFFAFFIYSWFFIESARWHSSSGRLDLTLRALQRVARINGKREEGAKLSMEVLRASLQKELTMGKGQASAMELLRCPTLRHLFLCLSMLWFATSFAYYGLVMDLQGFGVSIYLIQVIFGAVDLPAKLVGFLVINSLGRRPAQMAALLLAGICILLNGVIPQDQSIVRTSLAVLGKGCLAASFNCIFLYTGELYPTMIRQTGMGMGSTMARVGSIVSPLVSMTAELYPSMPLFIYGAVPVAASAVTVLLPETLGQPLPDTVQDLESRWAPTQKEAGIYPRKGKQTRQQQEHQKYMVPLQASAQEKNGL
Briefly: Inhibition of human OAT1.

The target of data set [2] is T2, Organic anion transporter 3 (Homo sapiens, UniProt Q8TCC7).
T2 sequence (Q8TCC7 whole entry): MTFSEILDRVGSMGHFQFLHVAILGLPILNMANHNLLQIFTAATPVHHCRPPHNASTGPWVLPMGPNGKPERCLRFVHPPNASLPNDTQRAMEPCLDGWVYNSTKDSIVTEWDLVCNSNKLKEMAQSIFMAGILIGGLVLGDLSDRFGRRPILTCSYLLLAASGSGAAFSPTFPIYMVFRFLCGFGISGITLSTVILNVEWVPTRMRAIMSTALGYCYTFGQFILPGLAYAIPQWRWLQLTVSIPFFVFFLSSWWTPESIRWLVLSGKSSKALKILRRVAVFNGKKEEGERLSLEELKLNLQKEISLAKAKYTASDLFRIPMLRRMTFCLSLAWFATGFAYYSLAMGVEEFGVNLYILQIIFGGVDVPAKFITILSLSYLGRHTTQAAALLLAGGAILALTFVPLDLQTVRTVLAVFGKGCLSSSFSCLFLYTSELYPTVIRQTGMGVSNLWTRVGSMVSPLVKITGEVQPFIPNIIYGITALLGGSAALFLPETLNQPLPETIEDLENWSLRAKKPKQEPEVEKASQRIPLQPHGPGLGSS
The data set can be described thus: Inhibition of human OAT3.

Data set [3] can be described thus: Cmax in Sprague-Dawley rat at 5 mg/kg, po. It is filed as ADME, organism-based. Set-up: dose 5 mg/kg, route oral. To be noted: in vivo.
Data set [4] is described as follows: Tmax in Sprague-Dawley rat at 5 mg/kg, po. It is filed as ADME, organism-based. Set-up: dose 5 mg/kg, route oral. To be noted: in vivo.
For data set [5], the target named is T3, Solute carrier family 22 member 3 (Rattus norvegicus, UniProt O88446).
T3 sequence (O88446 whole entry): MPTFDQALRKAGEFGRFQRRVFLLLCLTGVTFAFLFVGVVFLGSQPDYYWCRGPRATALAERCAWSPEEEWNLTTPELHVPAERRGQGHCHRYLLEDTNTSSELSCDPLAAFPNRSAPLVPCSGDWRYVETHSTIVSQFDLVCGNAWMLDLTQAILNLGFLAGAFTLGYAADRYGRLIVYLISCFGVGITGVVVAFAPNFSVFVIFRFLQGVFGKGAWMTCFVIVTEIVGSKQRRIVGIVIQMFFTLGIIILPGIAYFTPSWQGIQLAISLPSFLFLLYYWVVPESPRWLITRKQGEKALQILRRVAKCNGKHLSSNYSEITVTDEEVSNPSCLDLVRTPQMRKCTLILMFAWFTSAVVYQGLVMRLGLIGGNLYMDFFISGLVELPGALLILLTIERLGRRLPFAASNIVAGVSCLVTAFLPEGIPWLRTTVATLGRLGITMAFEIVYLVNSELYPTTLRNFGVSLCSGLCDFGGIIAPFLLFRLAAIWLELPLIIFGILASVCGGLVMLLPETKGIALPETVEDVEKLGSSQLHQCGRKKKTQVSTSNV
The data set can be described thus: Inhibition of rat OCT3 expressed in HEK293 cells. It is filed as cell-based.

For a further data set, the system named is Rattus norvegicus. Briefly: Antidiabetic activity in Sprague-Dawley rat assessed as increase of urinary glucose excretion assessed per 200 gram of body weight at 30 mg/kg, po after 24 hrs. It counts as functional, Urine.
The subject of a further data set is Plasma. The data set can be described thus: Fraction unbound in rat plasma at 1000 ng/mL by equilibrium dialysis method. It counts as ADME, cell-free. (In general: In equilibrium dialysis only unbound substance equilibrates across the membrane.)
A short description of data set [6]: Apparent intrinsic clearance in human hepatocytes assessed per million of cells. It counts as ADME, cell-based, Liver, Hepatocyte.

On to `CCOc1ccc(Cc2cc([C@]34OC[C@](CO)(O3)[C@@H](O)[C@H](O)[C@H]4O)ccc2Cl)cc1` [ERTUGLIFLOZIN], for which the “inhibition (INH)” value in data set [1], in data set [2] and in data set [5] was “Not Active” throughout. For the same compound, the Cmax (usually the highest concentration seen after dosing) in data set [3] stood at 1940 ng/mL. The Tmax (usually the time from dosing to the highest level) in data set [4] stood at 1 h. Further, the Activity in the data set with Rattus norvegicus was 2554 mg. In the data set on Plasma, this compound came in with a Fu of 4%. The hepatocyte CLint (as a rule, the capacity of the preparation to metabolise the compound, expressed as a volume cleared per time) in data set [6] was 4.5 µL/min/1e6 cells.
